What was measured:
[1] = Plasma pharmacokinetics, 28-day topical ophthalmic dosing in beagle dogs; conditions: dog, in vivo
Method: In the study, dogs (3 males and 3 females) received bilateral daily topical administration of 40 μL/eye of 2.0%, 4.0%, or 8.0% as measured in mg/mL (equivalent to 0.8, 1.6, or 3.2 mg CKLP1 per eye) of CKLP1 in phosphate buffered saline. Based on an average male dog weight of 7.9 kg at the start of the study, these doses were equivalent to 0.20 mg/kg, 0.41 mg/kg, or 0.81 mg/kg and based on an average female dog weight of 6.0 kg at the start of the study, these doses were equivalent to 0.27 mg/kg, 0.53 mg/kg, or 1.07 mg/kg. Blood was collected for toxicokinetic analysis pre-dose and at 1, 2, 4, 8, 12, and 24 hours post dosing on days 1 and 28. In addition, 2 animals of each gender were allowed 336 hours (14 days) of recovery time following the final dose, at which point final blood samples were obtained.

[2] = Toxicokinetics after escalating intravenous doses of CKLP1 in beagles; type: in vivo, beagle dog; design: AUCTlast/Dose: unit not given here; conditions: for AUC(0-t) / Cmax / RAUC / AUC(0-inf) / C0 / Tlast / Tmax / Vd / clearance / half-life / λZ range: dog, in vivo; for AUCTlast/Dose / Cmax/Dose: female dog
Method: Two beagles (one male and one female) were intravenously injected with escalating doses of CKPL1 (0.05 mg/kg, 0.5 mg/kg, 1.5 mg/kg, 3 mg/kg, and 5 mg/kg) to assess the toxicity of CKLP1. The injection was done through the cephalic vein and CKLP1 was administered in a phosphate buffered saline solution ((0.096% sodium phosphate dibasic, 0.089% sodium dihydrogen orthophosphate monohydrate, 0.83% sodium chloride) pH 6.5±0.1 in sterile water for injection USP). The dosing schedule is shown below in Table 3.
The following parameters and endpoints were evaluated: mortality, clinical observations, body and organ weights, and food consumption. Bioanalytical samples for toxicokinetic parameters (for both CKLP1 and leveromakalim) were collected after each dose level (days 1, 3, 8, 10, and 14) at predose, 1, 3, 6, 8, and 24 hours postdose. Animals were released from the study after completion of the bioanalytical sample collection schedule.
Toxicokinetics (TK) were determined based on the individual exposures for each animal on each sampled study day (days 1, 3, 8, 10, and 14). […] Predose samples had no quantifiable exposure in any animal on any day, with the exception of the female dog on day 10. The predose concentration for the female dog on day 10 was excluded from the TK analysis in order to allow for estimation of the IV C0.

[3] = female, beagle, topical or ocular, 0.27 mg/kg
[4] = female, beagle, topical or ocular, 1.07 mg/kg
[5] = female, beagle, topical or ocular, […]
[6] = male, beagle, topical or ocular, 0.2 mg/kg
[7] = male, beagle, topical or ocular, 0.41 mg/kg
[8] = male, beagle, topical or ocular, 0.81 mg/kg
[9] = IV CKLP1 0.05 mg/kg, study day 1
[10] = IV CKLP1 0.5 mg/kg, study day 3
[11] = IV CKLP1 1.5 mg/kg, study day 8

Which results are given for `CC1(C)Oc2ccc(C#N)cc2[C@@H](N2CCCC2=O)[C@@H]1OP(=O)(O)O` [CKLP1]?
half-life ([1]; beagle, mean T1/2 of CKLP1): 3.32 to 6.18 h; half-life ([1]; beagle, terminal elimination half-life): 3 to 6 h; concentration at 336 h ([1]; both sexes, beagle): < 2 ng/mL; predose levels of CKLP1 on day 28, times lower than peak plasma concentrations ([1]; both, beagle): 16-25 times; accumulation of CKLP1 on day 28 relative to day 1 [1]: no accumulation; time of Cmax of CKLP1 [1]: 1 to 2 h; AUC0-last [1, 3]: 545 ng·h/mL; AUC(0-inf) [1, 3]: 660 ng·h/mL; Cmax [1, 3]: 80.2 ng/mL; Tmax [1, 3]: 2 h; t1/2 [1, 3]: 3.68 h; AUC(0-t) ([1]; female, beagle, topical or ocular, 0.27 mg/kg, AUC0-last): 496 ng·h/mL; Cmax ([1]; female, beagle, topical or ocular, 0.27 mg/kg, Cmax): 55.5 ng/mL; half-life ([1]; female, beagle, topical or ocular, 0.27 mg/kg, t1/2): 4.12 h; AUC0-last [1, 4]: 1200 ng·h/mL; AUC(0-inf) [1, 4]: 1860 ng·h/mL; Cmax [1, 4]: 139 ng/mL; Tmax [1, 4]: 2 h; t1/2 [1, 4]: 5.15 h; AUC(0-t) ([1]; female, beagle, topical or ocular, 1.07 mg/kg, AUC0-last): 1480 ng·h/mL; Cmax ([1]; female, beagle, topical or ocular, 1.07 mg/kg, Cmax): 156 ng/mL; half-life ([1]; female, beagle, topical or ocular, 1.07 mg/kg, t1/2): 4.92 h; AUC0-last [1, 5]: 1750 ng·h/mL; Tmax [1, 5]: 2 h; half-life ([1]; female, beagle, topical or ocular, […], t1/2): 6.18 h; AUC0-last [1, 6]: 272 ng·h/mL; AUC(0-inf) [1, 6]: 299 ng·h/mL; Cmax [1, 6]: 47.0 ng/mL; Tmax [1, 6]: 1 h; t1/2 [1, 6]: 3.44 h; AUC(0-t) ([1]; male, beagle, topical or ocular, 0.2 mg/kg, AUC0-last): 231 ng·h/mL; Cmax ([1]; male, beagle, topical or ocular, 0.2 mg/kg, Cmax): 36.5 ng/mL; half-life ([1]; male, beagle, topical or ocular, 0.2 mg/kg, t1/2): 3.69 h; AUC0-last [1, 7]: 381 ng·h/mL; AUC(0-inf) [1, 7]: 571 ng·h/mL; Cmax [1, 7]: 57.3 ng/mL; Tmax [1, 7]: 1 h; t1/2 [1, 7]: 3.32 h; AUC(0-t) ([1]; male, beagle, topical or ocular, 0.41 mg/kg, AUC0-last): 520 ng·h/mL; Cmax ([1]; male, beagle, topical or ocular, 0.41 mg/kg, Cmax): 73.7 ng/mL; half-life ([1]; male, beagle, topical or ocular, 0.41 mg/kg, t1/2): 4.26 h; AUC0-last [1, 8]: 1260 ng·h/mL; AUC(0-inf) [1, 8]: 1580 ng·h/mL; Tmax [1, 8]: 2 h; t1/2 [1, 8]: 5.08 h; AUC(0-t) ([1]; male, beagle, topical or ocular, 0.81 mg/kg, AUC0-last): 1520 ng·h/mL; Cmax ([1]; male, beagle, topical or ocular, 0.81 mg/kg, CKLP1, Male, topical 8.0% CKLP1 daily, Day 1, read-out: Cmax): 166 ng/mL; Cmax ([1]; male, beagle, topical or ocular, 0.81 mg/kg, CKLP1, Male, topical 8.0% CKLP1 daily, Day 28, read-out: Cmax): 147 ng/mL; half-life ([1]; male, beagle, topical or ocular, 0.81 mg/kg, t1/2): 4.82 h; Cmax ([1]; male, beagle, topical or ocular, 8 %, day 28, males, read-out: mean Cmax at NOAEL): 147 ng/mL; AUC(0-t) ([1]; male, beagle, topical or ocular, 8.0%, day 28, males, read-out: mean AUC Tlast at NOAEL): 1260 ng·h/mL; gender differences in AUC values following each dose ([2]; IV CKLP1): less than 2 fold; AUC(0-t) ([2]; both sexes, beagle, CKLP1, IV 3 mg/kg, read-out: AUCTlast at MTD, sex-combined): 107000 ng·h/mL; Cmax ([2]; both sexes, beagle, CKLP1, IV 3 mg/kg, read-out: Cmax at MTD, sex-combined): 16400 ng/mL; RAUC ([2]; iv, 0.05 mg/kg): LOO; plasma concentrations of CKLP1 relative to levcromakalim ([2]; early time points after IV CKLP1): more than 300 fold; AUCTlast/Dose [2, 9]: 41900; Cmax/Dose [2, 9]: 7.12e+06 µg/mL; AUCTlast/Dose [2, 10]: 41900; Cmax/Dose [2, 10]: 5.98e+06 µg/mL; AUCTlast/Dose [2, 11]: 40800; Cmax/Dose [2, 11]: 6.03e+06 µg/mL; AUCTlast/Dose ([2]; IV CKLP1 3 mg/kg, study day 10): 42800; Cmax/Dose ([2]; IV CKLP1 3 mg/kg, study day 10): 6.13e+06 µg/mL; AUCTlast/Dose ([2]; IV CKLP1 5 mg/kg, study day 14): 62300; Cmax/Dose ([2]; IV CKLP1 5 mg/kg, study day 14): 5.86e+06 µg/mL; AUC(0-inf) ([2]; female, beagle, iv, 0.05 mg/kg): 2110 ng·h/mL; AUC(0-t) ([2]; female, beagle, iv, 0.05 mg/kg): 2100 ng·h/mL; C0 ([2]; female, beagle, iv, 0.05 mg/kg): 461 ng/mL; Cmax ([2]; female, beagle, iv, 0.05 mg/kg): 356 ng/mL; RAUC ([2]; female, beagle, iv, 0.05 mg/kg): 1.00; Tlast ([2]; female, beagle, iv, 0.05 mg/kg): 24.0 h; Tmax ([2]; female, beagle, iv, 0.05 mg/kg): 1 h; Vd ([2]; female, beagle, iv, 0.05 mg/kg): 0.112 L/kg; clearance ([2]; female, beagle, iv, 0.05 mg/kg): 0.395 mL/min/kg; half-life ([2]; female, beagle, iv, 0.05 mg/kg): 3.26 h; λZ range ([2]; female, beagle, iv, 0.05 mg/kg): 6 to 24 h; AUC(0-inf) ([2]; female, beagle, iv, 0.5 mg/kg): 21200 ng·h/mL; AUC(0-t) ([2]; female, beagle, iv, 0.5 mg/kg): 20900 ng·h/mL; C0 ([2]; female, beagle, iv, 0.5 mg/kg): 3670 ng/mL; Cmax ([2]; female, beagle, iv, 0.5 mg/kg): 2990 ng/mL; RAUC ([2]; female, beagle, iv, 0.5 mg/kg): 10.0; Tlast ([2]; female, beagle, iv, 0.5 mg/kg): 24.0 h; Tmax ([2]; female, beagle, iv, 0.5 mg/kg): 1 h; Vd ([2]; female, beagle, iv, 0.5 mg/kg): 0.139 L/kg; clearance ([2]; female, beagle, iv, 0.5 mg/kg): 0.392 mL/min/kg; half-life ([2]; female, beagle, iv, 0.5 mg/kg): 4.11 h; λZ range ([2]; female, beagle, iv, 0.5 mg/kg): 6 to 24 h; AUC(0-inf) ([2]; female, beagle, iv, 1.5 mg/kg): 62500 ng·h/mL; AUC(0-t) ([2]; female, beagle, iv, 1.5 mg/kg): 61200 ng·h/mL; C0 ([2]; female, beagle, iv, 1.5 mg/kg): 11000 ng/mL; Cmax ([2]; female, beagle, iv, 1.5 mg/kg): 9050 ng/mL

From patent US20220387457A1 (Qlaris Bio, Inc., priority 2020, published 2022)
